Patent publication US7960392B2, “Nitrogen-containing heterocyclic compounds” (Asahi Kasei Pharma Corporation, priority 2008, dated 2011)
pIC50, pKi: −log10 of the molar value. Blank lines part the entries; values can stand above or below the compound they belong to.

What was measured:
human EP1 receptor [1] = biological target: T1, human EP1 receptor (Homo sapiens, UniProt P34995); experiment: Antagonist activity (SRE-Luciferase reporter activity) using cells expressing human EP1 receptor; type: cell-based; conditions: HEK293 cells stably expressing human EP1 receptor with SRE-Luciferase reporter; PGE2 final concentration 10 nM; 37° C. for 6 hours; read-out: IC50 value, antagonist activity measurement test using the cells expressing human EP1 receptor
T1 construct: expressed in transfected cells
T1 sequence (P34995 1-402): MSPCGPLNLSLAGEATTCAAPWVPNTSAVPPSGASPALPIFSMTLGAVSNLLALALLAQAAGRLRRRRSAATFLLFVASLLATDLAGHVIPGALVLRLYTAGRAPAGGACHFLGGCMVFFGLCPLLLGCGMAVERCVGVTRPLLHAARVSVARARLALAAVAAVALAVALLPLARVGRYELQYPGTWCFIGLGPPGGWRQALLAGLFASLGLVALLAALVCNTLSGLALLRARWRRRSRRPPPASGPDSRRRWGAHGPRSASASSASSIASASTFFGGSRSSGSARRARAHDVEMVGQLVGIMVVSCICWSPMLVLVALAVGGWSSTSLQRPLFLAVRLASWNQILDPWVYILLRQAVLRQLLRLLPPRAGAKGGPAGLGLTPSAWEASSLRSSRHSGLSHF
Experimental: (§1) Measurement of an Antagonist Activity by Using Cells Expressing Human EP1 Receptor
In order to investigate the EP1 receptor antagonist activity of the compounds of the present invention, a reporter activity was measured by using HEK293 cells in which human EP1 receptor has been stably expressed.
As a result of searching Refseq Database for prostaglandin E receptor, genetic information of human EP1 (NM_000955) receptor was obtained. Based on this sequence information, human EP1 receptor gene was cloned by PCR using human cDNA as a template and by other general method to give human EP1 receptor. Then, HEK293 in which the receptor is stably expressed was established, together with a reporter gene (SRE-Luciferase) in which serum responsible element (SRE) is added at the upstream region of firefly luciferase gene. The resulting cells were added to a 96 well plate (5×10^4 cells/well) and cultured for one day. To the plate, PGE2 (200 nM, final concentration 10 nM) and the test compound (in an amount of 1/20, 20× of the final concentration) were added to initiate the reaction. After allowing the reaction to proceed at 37° C. for 6 hours, the medium was aspirated off, added with a luminescent agent and the reporter activity was measured.

human EP1 receptor [2] = biological target: T1, human EP1 receptor; experiment: Antagonist activity (intracellular Ca2+ assay) using cells expressing human EP1 receptor; type: cell-based; conditions: HEK293 cells stably expressing human EP1 receptor; inhibition of increase in intracellular Ca2+ concentration by PGE2 (10 nM); Fura 2-AM
Experimental: as §1
In order to investigate the EP1 receptor antagonist activity of the compounds of the present invention, intracellular Ca^2+ was measured by using HEK293 cells in which human EP1 receptor has been stably expressed.
Cells expressing human EP1 receptor were suspended in an assay buffer to the concentration of 5×10^6 cells/ml, added with Puronic F-127 (final concentration 0.2%), and Fura 2-AM (final concentration 5 uM), followed by incubation at 37° C. for 30 minutes. After washing twice with the assay buffer, the cells were again suspended in the assay buffer to 1×10^6 cells/60 ul, and then transferred to a 96 well UV plate (1×10^6 cells/60 ul/well). Thereafter, by using a fluorescent chemical screening system (FDSS4000, Hamamatsu Photonics K.K.), intracellular Ca^2+ concentration was measured after adding 20 ul of each of the test compounds and PGE2 (5× of the final concentration for both). Ca^2+ concentration was measured by determining fluorescence intensity after irradiation with two excitation wavelengths, i.e., 340 and 380 nm.
Furthermore, EP1 antagonist activity was calculated as a ratio (%) of inhibiting increase in intracellular Ca^2+ concentration by PGE2 (10 nM).
Assay buffer: 20 mM HEPES/KOH (pH 7.4), 115 mM NaCl, 5.4 mM KCl, 0.8 mM MgCl2, 0.8 mM CaCl2, 13.8 mM D-glucose, 0.1% BSA

human EP1 receptor [3] = biological target: T1, human EP1 receptor; experiment: Receptor binding test ([3H]PGE2 binding inhibition) using cells expressing human EP1 receptor; conditions: membrane fraction of HEK293 cells stably expressing human EP1 receptor; [3H]PGE2 1 nM; 30° C. for 90 minutes; Ki=IC50/(1+[C]/Kd)
Experimental: Receptor Binding Test Using Cells Expressing Human EP1 Receptor
Inhibitory activity of the test compounds on binding of [^3H]PGE2 in HEK293 cells stably expressing human EP1 receptor was measured.
HEK293 cells which stably express human EP1 receptor were established by using the gene for human EP1 receptor, and then a membrane fraction was prepared therefrom. Thus-prepared membrane fraction was incubated at 30° C. for 90 minutes with a reaction solution (200 μL/well) which includes the test compound and [^3H]PGE2. Upon the completion of the reaction, the reaction solution was aspirated off under reduced pressure, and the [^3H]PGE2 bound to the membrane fraction was trapped by using Unifilter Plateg F/C (manufactured by Packard) and the bound radioactivity was counted with a liquid scintillator.
Kd value was obtained from a Scatchard plot. Non-specific binding was obtained from the binding in the presence of an excess amount (10 μM) of non-labeled PGE2. For the measurement of an inhibitory activity of the test compound on [^3H]PGE2 binding, [^3H]PGE2 (1 nM) and various concentrations of the test compound were added. Meanwhile, for all of the reactions, the buffer as described below was used.
Buffer;10 mM MES/NaOH (pH 6.0), 10 mM MgCl2, 1 mM EDTA, 0.1% BSA
Dissociation constant of the compounds, i.e., Ki, was obtained according to the following equation. […]

female SD rat = experiment: Micturition interval prolongation in an anesthetized rat-II; type: in vivo; conditions: urethane-anesthetized female SD rat; 0.2% acetic acid in physiological saline infused to the bladder; administered to the left femoral vein
Experimental: Micturition Interval Prolongation in an Anesthetized Rat-II
Activity of prolonging micturition interval in an anesthetized rat was determined with reference to the method established by Maggi, et al. (Eur. J. Pharmacol. 145, p. 105-112 (1988)). Specifically, a female SD rat was anesthetized with urethane and fixed in a flat position, and a catheter was inserted through an external urethral opening. Using a three-way stop cock, it was connected to a pressure transducer and a syringe pump. While infusing physiological saline including 0.2% acetic acid to the bladder at constant rate, cystometrogram was recorded. After confirming stabilized micturition interval, micturition threshold pressure and maximal voiding pressure, a solvent or the compound to be tested was administered to the left femoral vein and an activity of prolonging micturition interval was determined as an efficacy of the drug compound. Each group included five animals.

male SD rat = experiment: Micturition interval prolongation in an awaken rat-II; type: in vivo; conditions: cystitis induced by 0.3% acetic acid, intravenous administration, 60 minutes post- vs 30 minutes pre-administration
Text: Micturition Interval Prolongation in an Awaken Rat-II As a test animal, a male SD rat (Charles River Corporation, Japan) was used. The rat was anesthetized by isofluran inhalation (nitrous oxide:oxygen=7:3), and being laid on its stomach, it remained anesthetized by 2% isofluran inhalation. Then, an incision was made at the center region of the abdomen, and the bladder was exposed. A small incision was made to the vertex region of the bladder, and a polyethylene tube (PE-50: Becton Dickinson) was inserted to the bladder and fixed. One end of a cannula was subcutaneously directed to the backside of the animal, and after fixing the cannula to the abdomen wall, the incision was sealed. The cannula directed to the backside was connected to a seibel and the middle region was protected with a stainless spring. […] Then, through one end of the tube that had been inserted to the bladder, physiological saline warmed to 37° C. was injected at the rate of 3.0 mL/hr using a three-way stop cock, while the other end was connected to a pressure transducer and cystometrogram was recorded continuously with pressure amplification. The discharged urine was collected in a vessel placed on a digital balance and change in the urine weight was measured at the same time. […]

Compound: O=C(O)c1csc(-n2nc(-c3ccccc3O)cc2-c2ccccc2)n1 [Exp. 20]
pIC50 (human EP1 receptor [1]): 6.52 to 7.00 | pIC50 (human EP1 receptor [2]): 5.52 to 6.00

Compound: Cc1c(-c2ccccc2)nn(-c2nc(C(=O)O)cs2)c1-c1ccccc1 [Exp. 30]
pIC50 (human EP1 receptor [1]): ≥ 7.00 | pIC50 (human EP1 receptor [2]): 6.00 to 6.52 | pKi (human EP1 receptor [3]): ≥ 6.52 | Micturition interval prolonging activity (female SD rat): 25.8%

Compound: Nc1c(-c2ccccc2)nn(-c2nc(C(=O)O)cs2)c1-c1ccccc1 [Exp. 35]
pIC50 (human EP1 receptor [1]): ≥ 7.00 | pIC50 (human EP1 receptor [2]): ≥ 6.52 | pKi (human EP1 receptor [3]): ≥ 6.52 | micturition volume (male SD rat): increase in micturition volume | prolongation in micturition interval (male SD rat): at least 30%

Compound: O=C(O)c1csc(-n2nc(-c3ccccc3)c(Cl)c2-c2ccccc2)n1 [Exp. 37]
pIC50 (human EP1 receptor [1]): ≥ 7.00 | pIC50 (human EP1 receptor [2]): 6.00 to 6.52

Compound: Cc1c(-c2ccccc2)nn(-c2nc(C(=O)O)cs2)c1-c1cccc(O)c1 [Exp. 48]
pIC50 (human EP1 receptor [1]): 6.52 to 7.00

Compound: Cc1c(-c2ccccc2)nn(-c2nc(C(=O)O)cs2)c1-c1ccc(F)cc1 [Exp. 54]
pIC50 (human EP1 receptor [1]): ≥ 7.00

Compound: Cc1c(-c2ccccc2)nn(-c2nc(C(=O)O)cs2)c1-c1cc(F)cc(F)c1 [Exp. 80]
pIC50 (human EP1 receptor [1]): ≥ 7.00

Compound: Cc1c(-c2ccccc2)nn(-c2nc(C(=O)O)cs2)c1-c1cccs1 [Exp. 91]
pIC50 (human EP1 receptor [1]): 6.52 to 7.00

Compound: Cc1c(-c2ccccc2)nn(-c2nc(C(=O)O)cs2)c1-c1ccoc1 [Exp. 95]
pIC50 (human EP1 receptor [1]): ≥ 7.00 | pIC50 (human EP1 receptor [2]): 6.00 to 6.52

Compound: Cc1c(-c2ccccc2)nn(-c2nc(C(=O)O)cs2)c1C1=CCCCO1 [Exp. 111]
pIC50 (human EP1 receptor [1]): ≥ 7.00 | pIC50 (human EP1 receptor [2]): ≥ 6.52

Compound: O=C(O)c1csc(-n2nc3c(c2-c2ccccc2)CCc2ccccc2-3)n1 [Exp. 116]
pIC50 (human EP1 receptor [1]): ≥ 7.00 | pIC50 (human EP1 receptor [2]): ≥ 6.52

Compound: Cc1c(-c2ccccc2)nn(/C=C\c2nc(C(=O)O)cs2)c1-c1ccccc1 [Exp. 127]
pIC50 (human EP1 receptor [1]): 6.00 to 6.52

Second part, the compound after the results:

pIC50 (human EP1 receptor [1]): 6.00 to 6.52
Compound: Cc1c(-c2ccccc2)nn(Cc2nc(C(=O)O)cs2)c1-c1ccccc1 [Exp. 14, 2-{(4-Methyl-3,5-diphenyl-1H-pyrazol-1-yl)methyl}thiazole-4-carboxylic acid]

pIC50 (human EP1 receptor [1]): ≥ 7.00 | pIC50 (human EP1 receptor [2]): 6.00 to 6.52
Compound: O=C(O)c1csc(-n2nc(-c3ccccc3)c(F)c2-c2ccccc2)n1 [Exp. 36]

pIC50 (human EP1 receptor [1]): ≥ 7.00 | pIC50 (human EP1 receptor [2]): ≥ 6.52
Compound: O=C(O)c1csc(-n2nc(-c3ccccc3)c(Br)c2-c2ccccc2)n1 [Exp. 38]

pIC50 (human EP1 receptor [1]): 6.00 to 6.52
Compound: COc1ccccc1-c1c(C)c(-c2ccccc2)nn1-c1nc(C(=O)O)cs1 [Exp. 42]

pIC50 (human EP1 receptor [1]): ≥ 7.00
Compound: Cc1c(-c2ccccc2)nn(-c2nc(C(=O)O)cs2)c1-c1cccc(F)c1 [Exp. 44]

pIC50 (human EP1 receptor [1]): 6.52 to 7.00
Compound: Cc1c(-c2ccccc2)nn(-c2nc(C(=O)O)cs2)c1-c1cc(F)ccc1F [Exp. 88]

pIC50 (human EP1 receptor [1]): 6.52 to 7.00
Compound: Cc1c(-c2ccccc2)nn(-c2nc(C(=O)O)cs2)c1-c1cc(F)c(F)c(F)c1 [Exp. 90]

pIC50 (human EP1 receptor [1]): ≥ 7.00
Compound: Cc1c(-c2ccccc2)nn(-c2nc(C(=O)O)cs2)c1-c1ccsc1 [Exp. 92]

pIC50 (human EP1 receptor [1]): ≥ 7.00 | pIC50 (human EP1 receptor [2]): 6.00 to 6.52
Compound: Cc1c(-c2ccccc2)nn(-c2nc(C(=O)O)cs2)c1-c1ccco1 [Exp. 94]

pIC50 (human EP1 receptor [1]): ≥ 7.00
Compound: Cc1c(-c2ccccc2)nn(-c2nc(C(=O)O)cs2)c1-c1cccc2cccnc12 [Exp. 105]

pIC50 (human EP1 receptor [1]): ≥ 7.00 | pIC50 (human EP1 receptor [2]): ≥ 6.52
Compound: O=C(O)c1csc(-n2nc(-c3ccccc3)c3c2-c2ccccc2C3)n1 [Exp. 114]

pIC50 (human EP1 receptor [1]): ≥ 7.00
Compound: O=C(O)c1csc(-n2nc(-c3ccccc3)c3oc4ccccc4c32)n1 [Exp. 117]

pIC50 (human EP1 receptor [1]): 6.52 to 7.00
Compound: Cc1c(-c2ccccc2)nn(/C=C/c2nc(C(=O)O)cs2)c1-c1ccccc1 [Exp. 128]
